Experimental data published in patent publication US6265423A, “Aromatic polycyclic retinoid-type derivatives, method for preparing same, and use thereof for making pharmaceutical and cosmetic compositions” (priority 1996, dated 2001).

Legend:
[1] = system: RARα-ERcassette; experiment: Transactivation, chimerical receptor RARα-ERcassette (HeLa); assay type: cell-based; details: TTNPB 10^-8 M = 100
Description: (§1) The HeLa cells are co-transfected by a plasmid which codes for a retinoic receptor in which the C domain of bonding to the DNA is substituted by that of the receptor to RE oestrogens, and a plasmid which places the expression of the luciferase under the control of an ERE (Element of Response to Oestrogens). The expressed chimerical receptors are designated as RARα-ERcassette, RARβ-ERcassette, RARγ-ERcassette and RXRα-ERcassette. The A, B, D, E and F regions of the natural receptor are preserved as well as the transcriptional co-operation between the activation domains AF-1 and AF-2. These transitory transfection experiments follow the method of co-precipitation to calcium phosphate. The HeLa cells are co-transfected by […] of plasmid coding for the chimerical receptor, […] of reporter plasmid and […] of expression vector CMV-β-galactosidase used as an internal control of transfection. 24 hours after the transfection, the cells are incubated for 16 hours with the different effectors.
(§2) In this type of chimerical receptor, the C domain of bonding to the DNA of RAR is substituted by that of the receptor to the RE oestrogens. The protein obtained is close to the natural RAR receptor and preserves the transcriptional properties of the AF-1 and AF-2 domains. It modulates the transcription by means of an ERE. This RAR-ERcassette model allows one to observe a transcriptional response to a more physiological ligand.

[2] = system: RARβ-ERcassette; experiment: Transactivation, chimerical receptor RARβ-ERcassette (HeLa); assay type: cell-based; details: TTNPB 10^-8 M = 100
Description: as §1, §2

[3] = system: RARγ-ERcassette; experiment: Transactivation, chimerical receptor RARγ-ERcassette (HeLa); assay type: cell-based; details: TTNPB 10^-8 M = 100
Description: as §1, §2

[4] = system: T-47D cells; experiment: Effect on oestrogen-induced proliferation of T-47D cells; assay type: cell-based, human
Method: (§3) MCF-7 cells and HeLa are cultivated in DMFM with phenol red to which 5% foetal calf serum is added. The T47-D cells are cultivated in RPMI to which 10% foetal calf serum is added. The experimental tests are carried out in DMEM without phenol red to which foetal calf serum treated with dextran carbon is added at 3%. […] The experiments using the different retinoids are carried out sheltered from the light so as to avoid any isomerisation.
So as to test the anti-proliferation effect of the retinoids, growth experiments under oestrogenic conditions were carried out on cells MCF-7 and T-47D. These are the human oestrogen-dependent mammary cancer cells which express the receptor to RE oestrogens. The effect of the molecules is evaluated after 7 days of culture in oestrogenic conditions (estradiol 10^-9 M) by dosing the cellular DNA. The cells are distributed in 24 well plates at a density of 2×10^4 cells per well. The tests with the different retinoids are carried out in triplicate and the culture medium is changed after 4 days of growth.

[5] = system: response element RARE of RARβ gene, endogenic retinoic receptors, HRLN lineage; experiment: HRLN transactivation (RARE-luciferase, stably transfected HeLa); assay type: cell-based; details: for Emax: read-out: HRLN transactivation, E max
Method: as §3
(§4) Certain properties of the retinoids have been determined using more developed cellular models. These models consist of cellular lineages transfected in a stable fashion by recombinant plasmids which place the expression of the gene of the luciferase under the control of different nuclear response elements. […] The tests carried out in duplicate are described below for each of these models.
The cellular lineages HRLN and HRL+N allow one to study the activation of an RARE by endogenic receptors using ligands at physiological concentrations. These lineages derive from HeLa cells transfected in a stable fashion by a reporter gene which places the expression of the gene of the luciferase under the control of a nuclear response element RARE (RARE3 -tk-Luc). The HeLa cells express all the known receptors of the retinoic acid (RARα,β,γ and RXRα,β,γ) with a predominance of RARα and RXRα. The response element RARE used for the HRLN cells corresponds to the sequence of the natural gene of the RARβ receptor (GGTTCAnnnnnAGTTCA). The HRL+N cells comprise the sequence GAGTGAnnnnnCGGTGA.
This lineage comprises the response element RARE of the natural gene of the RARβ receptor which controls the expression of the gene of the luciferase.

[6] = system: AP-1, MTLN lineage (MCF-7); experiment: Anti-AP-1 effect, MTLN lineage activated by TPA; assay type: cell-based, human
Method: as §4
The anti-factor AP-1 transrepressor effect of retinoids is determined using the MTLN lineage, coming from MCF-7 cells transfected in a stable fashion by a vector p(TRE)3 -tk-Luc which places the expression of the gene of luciferase under the control of […]. TPA activates the AP-1 complex formed from proteins of the family of nuclear proto-oncogenes (c-Jun and c-Fos). […] The experiments are made with the MTLN cells activated by 10^-7 M TPA.
The effect of the compounds on the MTLN cells activated by 10^-7 M TPA is expressed as a percentage. […] The inhibitive properties of the products are calculated after deduction of the base activity of the cells. The percentages reported correspond to a range of inhibitions determined from several experiments.

[7] = system: ERE-βGlob-Luc, MELN lineage (MCF-7); experiment: Anti-oestrogenic effect, MELN lineage activated by estradiol; assay type: cell-based, human; details: for inhibition: 10^-6 M; for inhibition at 0.1 µM: 10^-7 M; for anti-oestrogenic effect (in words): estradiol-activated MELN cells
Description: as §4
MCF-7 cells express RARα,γ and RXRα. The transfection of MCF-7 cells by an oestrogen-dependent gene (ERE-βGlob-Luc) has permitted the establishment of the MELN cellular lineage, used to determine the anti-oestrogenic activity of the retinoids. These cells contain the gene of the luciferase under the transcriptional control of the promoter of the βGlobine and of the response element ERE isolated from the gene of chicken vitelogenine A2. The experiments are carried out with MELN cells activated by 10^-9 M estradiol. The level of base activity of the MELN cells is obtained with the anti-oestrogen 1 μM 4-OH-tamoxifen (hydroxytamoxifen).
The effect of the products tested on the cells activated by 10^-9 M estradiol is expressed as a percentage, the level of base activity being deducted.

[8] = system: RAR-ERcassettes (RARα, RARβ, RARγ); experiment: Chimerical receptors RAR-ERcassettes, overall profile; assay type: cell-based
Description: as §1, §2

[9] = system: RAR and RXR receptors; experiment: RAR/RXR activity profile drawn from the models; assay type: cell-based
Description: The reference molecules have allowed one to show the effectiveness and the complementary nature of the different models used and lead to the following conclusions: chimerical constructions GAL-RAR and RAR-ERcassette allow the determination of the RAR agonist profile of molecules, but also an RXR agonist activity with RAR-ERcassette, the HRLN lineage mainly conveys the activity of a compound mediated by endogenic RARα, the HRL+N lineage also provides evidence of an RXR agonist activity of the retinoids, the anti-oestrogenic effect of the retinoids (oestrogen-induced cellular proliferation and MELN lineage) is mediated by RARα, the anti-AP-1 effect is mediated in the MCF-7 cells (MTLN lineage) by RARα, RARγ and RXRα, and an additive effect exists between the RAR and RXR routes.

[10] = Homo sapiens, MCF7, cells activated by 10^-9 M estradiol
[11] = Homo sapiens, MCF7, cells activated by 10^-9 M estradiol, read-out: anti-oestrogenic effect, inhibition

Compound	RAR-ERcassette RARα transactivation ([1]; 10^-6 M)	RAR-ERcassette RARα transactivation ([1]; 10^-7 M)	RAR-ERcassette RARβ transactivation ([2]; 10^-6 M)	RAR-ERcassette RARβ transactivation ([2]; 10^-7 M)	RAR-ERcassette RARγ transactivation ([3]; 10^-6 M)	RAR-ERcassette RARγ transactivation ([3]; 10^-7 M)	activity at 1 µM ([4]; Homo sapiens, T47D, 168 h, 10^-6 M, 100% = E2 10^-9 M, 7 days, read-out: growth of T-47D cells)	HRLN transactivation (in words) [5]	Emax ([5]; Homo sapiens, HeLa)	inhibition at 1 µM ([6]; Homo sapiens, MCF7, 10^-6 M, cells activated by 10^-7 M TPA, range of several experiments)	inhibition at 0.1 µM ([6]; Homo sapiens, MCF7, 10^-7 M, cells activated by 10^-7 M TPA, range of several experiments, read-out: anti-AP-1 effect, inhibition)	anti-AP-1 effect (in words) ([6]; TPA-activated MTLN cells)	inhibition [7, 10]	inhibition at 0.1 µM [7, 11]	anti-oestrogenic effect (in words) [7]	RAR-ERcassette profile (in words) [8]	RAR/RXR activity profile (in words) [9]	effect on oestrogen-induced growth, T-47D (in words) ([4]; estradiol 10^-9 M)	EC50 ([5]; Homo sapiens, HeLa, concentrations from 1 nM to 1 μM)	inhibition at 0.01 µM ([7]; Homo sapiens, MCF7, 10^-8 M, cells activated by 10^-9 M estradiol, read-out: anti-oestrogenic effect, inhibition)
C/C(=C/c1ccc2c(c1)C(C)(C)CCC2(C)C)c1ccc(C(=O)O)s1 [CB30382, (Z) 2-[1-(5,6,7,8-tetrahydro-5,5,8,8-tetramethyl-2-naphthalenyl)-2-propenyl]thienyl-5-carboxylic acid]	93%	12%	130%	39%	83%	29%	73 to 94%	induce a transactivation close to that of TTNPB	102%	42 to 47%	21%	exert an inhibitor effect comparable to that of the effect of CB28628	2 to 20%	0%	permit a transrepression of a controlled gene by an ERE	induce a transactivation mediated by the three receptors	panagonistic	–	–	–
C/C(=C\c1ccc2c(c1)C(C)(C)CCC2(C)C)c1ccc(C(=O)O)cc1 [CB24159, reference compound]	113%	–	117%	–	89%	–	–	–	100%	–	–	–	22 to 37%	26 to 43%	the most inhibiting of the oestrogenic transcription on the MELN model	–	RAR selective	inhibits the growth of the T-47D cells in a dose dependent manner with an efficacy greater than that of TTNPB	0.08 ± 0.1 nM	31 to 43%
